According to patent publication US4272437A, “Antibacterial agents, and 4-thio azetidinone intermediates” (priority 1979, dated 1981):
≈ marks a conversion by molar mass, not a printed value. Read-outs that look alike come from different tables or passages of the source.

How the values were obtained:
[1] = system: Str. faecalis A-20688; assay: MIC, tube dilution, Streptococcus faecalis A20688; format: cell-based; conditions: overnight 37° C.; for Minimum Inhibitory Concentration (M.I.C.): Str. faecalis A20688; for MIC: Enterococcus faecalis, A20688, Str. faecalis A20688, read-out: Minimum Inhibitory Concentration (M.I.C.)
From the text: (§1) Representative compounds of the present invention were subjected to in vitro antibiotic screening against a variety of microorganisms.

[2] = system: Staph. aureus A-9537 and 50% serum; assay: MIC, tube dilution, Staph. aureus A9537 + 50% serum; format: cell-based, Staphylococcus aureus; conditions: overnight 37° C.; for MIC: Staphylococcus aureus, read-out: Minimum Inhibitory Concentration (M.I.C.)
From the text: as §1

[3] = system: Ps. aeruginosa A-9843A; assay: MIC, tube dilution, Pseudomonas aeruginosa A9843A; format: cell-based; conditions: overnight 37° C.; for MIC: Pseudomonas aeruginosa, A9843A, read-out: Minimum Inhibitory Concentration (M.I.C.), Pseudomonas aeruginosa A9843A
From the text: as §1

[4] = system: Providencia stuartii A21205; assay: MIC, tube dilution, Providencia stuartii (Pr. rettgeri) A21205; format: cell-based; conditions: for Minimum Inhibitory Concentration (M.I.C.): Providencia stuartii (Pr. rettgeri) A21205; for MIC: Providencia stuartii
From the text: as §1

[5] = system: E. coli A-20341-1; assay: MIC, tube dilution, Escherichia coli A20341-1; format: cell-based
From the text: as §1

[6] = system: Staph. aureus (Pen-Res) A-9606; assay: MIC, tube dilution, Staphylococcus aureus A9606 (Pen-Res); format: cell-based; conditions: overnight 37° C.; for MIC: Staphylococcus aureus
From the text: as §1

[7] = system: Ser. marcescens A-20019; assay: MIC, tube dilution, Serratia marcescens A20019; format: cell-based; conditions: overnight 37° C.; for Minimum Inhibitory Concentration (M.I.C.): Serratia marcescens A20019; for MIC: Serratia marcescens, A20019, Serratia marcescens A20019, read-out: Minimum Inhibitory Concentration (M.I.C.)
From the text: as §1

[8] = system: Pr. morganii A-15153; assay: MIC, tube dilution, Proteus morganii A15153; format: cell-based; conditions: overnight 37° C.; for Minimum Inhibitory Concentration (M.I.C.): Proteus morganii A15153; for MIC: Morganella morganii, A15153, Proteus morganii A15153, read-out: Minimum Inhibitory Concentration (M.I.C.)
From the text: as §1

[9] = system: Str. pneumoniae A-9585; assay: MIC, tube dilution, Streptococcus pneumoniae A9585; format: cell-based; conditions: overnight 37° C., Nutrient Broth; for Minimum Inhibitory Concentration (M.I.C.): Str. pneumoniae A9585
From the text: as §1

[10] = system: E. coli A-15119; assay: MIC, tube dilution, Escherichia coli A15119; format: cell-based; conditions: overnight 37° C.; for Minimum Inhibitory Concentration (M.I.C.): E. coli A15119; for MIC: Escherichia coli, A15119, E. coli A15119, read-out: Minimum Inhibitory Concentration (M.I.C.)
From the text: as §1

[11] = system: Staph. aureus (Meth-Res) A-15097; assay: MIC, tube dilution, Staphylococcus aureus A15097 (Meth-Res); format: cell-based; conditions: overnight 37° C.; for MIC: Staphylococcus aureus
From the text: as §1

[12] = system: Ent. cloacae A-9656; assay: MIC, tube dilution, Enterobacter cloacae A9656; format: cell-based; conditions: overnight 37° C.; for MIC: read-out: Minimum Inhibitory Concentration (M.I.C.)
From the text: as §1

[13] = system: Pr. mirabilis A-9900; assay: MIC, tube dilution, Proteus mirabilis A9900; format: cell-based; conditions: overnight 37° C.; for Minimum Inhibitory Concentration (M.I.C.): Proteus mirabilis A9900; for MIC: Proteus mirabilis, A9900, Proteus mirabilis A9900, read-out: Minimum Inhibitory Concentration (M.I.C.)
From the text: as §1

[14] = system: K. pneumoniae A-15130; assay: MIC, tube dilution, Klebsiella pneumoniae A15130; format: cell-based; conditions: overnight 37° C.; for Minimum Inhibitory Concentration (M.I.C.): K. pneumoniae A15130; for MIC: Klebsiella pneumoniae, A15130, K. pneumoniae A15130, read-out: Minimum Inhibitory Concentration (M.I.C.)
From the text: as §1

[15] = system: Klebsiella species A20468; assay: MIC, tube dilution, Klebsiella species A20468; format: cell-based; conditions: Klebsiella species (K. pneumoniae) A20468, overnight 37° C.; for MIC: read-out: Minimum Inhibitory Concentration (M.I.C.)
From the text: as §1

[16] = system: Str. pyogenes A-9604; assay: MIC, tube dilution, Streptococcus pyogenes A9604; format: cell-based; conditions: overnight 37° C., Nutrient Broth; for Minimum Inhibitory Concentration (M.I.C.): Str. pyogenes A9604; for MIC: Streptococcus pyogenes, A9604, Str. pyogenes A9604, read-out: Minimum Inhibitory Concentration (M.I.C.)
From the text: as §1

[17] = system: Ps. aeruginosa A-21213; assay: MIC, tube dilution, Pseudomonas aeruginosa A21213; format: cell-based; conditions: Pseudomonas aeruginosa A21213, overnight 37° C.; for MIC: read-out: Minimum Inhibitory Concentration (M.I.C.)
From the text: as §1

[18] = system: Ent. cloacae A-9659; assay: MIC, tube dilution, Enterobacter cloacae A9659; format: cell-based; conditions: overnight 37° C.; for Minimum Inhibitory Concentration (M.I.C.): Enterobacter cloacae A9659; for MIC: Enterobacter cloacae, A9659, Enterobacter cloacae A9659, read-out: Minimum Inhibitory Concentration (M.I.C.)
From the text: as §1

[19] = system: Staph. aureus A-9537; assay: MIC, tube dilution, Staphylococcus aureus A9537; format: cell-based; conditions: overnight 37° C., Nutrient Broth; for Minimum Inhibitory Concentration (M.I.C.): Staph. aureus A9537; for MIC: Staphylococcus aureus, A9537, Staph. aureus A9537, read-out: Minimum Inhibitory Concentration (M.I.C.)
From the text: as §1

[20] = system: Pr. vulgaris A-9716; assay: MIC, tube dilution, Proteus vulgaris / Proteus mirabilis A9716; format: cell-based, Proteus vulgaris (name changed to Proteus mirabilis); conditions: overnight 37° C.; for MIC: Proteus vulgaris; for Minimum Inhibitory Concentration (M.I.C.): Proteus vulgaris / Proteus mirabilis A9716
From the text: as §1

[21] = Staph. aureus A15097 (Meth-Res)
[22] = A21205, Providencia stuartii (Pr. rettgeri) A21205, overnight 37° C., read-out: Minimum Inhibitory Concentration (M.I.C.)
[23] = Escherichia coli, A203411, E. coli A20341-1; overnight 37° C.; read-out: Minimum Inhibitory Concentration (M.I.C.)
[24] = Staph. aureus A9606 (Pen-Res), read-out: Minimum Inhibitory Concentration (M.I.C.)
[25] = Staph. aureus A15097 (Meth-Res), read-out: Minimum Inhibitory Concentration (M.I.C.)
[26] = Enterobacter cloacae, A9656, Enterobacter cloacae A9656
[27] = A21205, read-out: Minimum Inhibitory Concentration (M.I.C.)
[28] = Escherichia coli, A203411; E. coli A20341-1; overnight 37° C.; read-out: Minimum Inhibitory Concentration (M.I.C.)

SMILES	Minimum Inhibitory Concentration (M.I.C.) [1] [µg/mL]	Minimum Inhibitory Concentration (M.I.C.) [2] [µg/mL]	Minimum Inhibitory Concentration (M.I.C.) ([4]; overnight 37° C.) [µg/mL]	Minimum Inhibitory Concentration (M.I.C.) ([6]; Staph. aureus A9606 (Pen-Res)) [µg/mL]	Minimum Inhibitory Concentration (M.I.C.) [9] [µg/mL]	Minimum Inhibitory Concentration (M.I.C.) ([12]; Enterobacter cloacae A9656) [µg/mL]	Minimum Inhibitory Concentration (M.I.C.) [13] [µg/mL]	Minimum Inhibitory Concentration (M.I.C.) [15] [µg/mL]	Minimum Inhibitory Concentration (M.I.C.) [16] [µg/mL]	Minimum Inhibitory Concentration (M.I.C.) [19] [µg/mL]	MIC [1] [µg/mL]	MIC [2] [µg/mL]	MIC [7] [µg/mL]	MIC [8] [µg/mL]	MIC [10] [µg/mL]	MIC [13] [µg/mL]	MIC [14] [µg/mL]	MIC [15] [µg/mL]	MIC [18] [µg/mL]	MIC [5, 28] [µg/mL]	also measured
CCC1C(=O)N2C(C(=O)[O-])=C(C)S[C@H]12.[Na+] (stereo partly drawn) [1 (trans), Sodium 6-Ethyl-2-methylpenem-3-carboxylate]	> 125	> 63	63	8	2	> 125	125	> 125	4	8											Minimum Inhibitory Concentration (M.I.C.) ([3]; Pseudomonas aeruginosa A9843A): > 125 µg/mL; Minimum Inhibitory Concentration (M.I.C.) ([5]; E. coli A20341-1; overnight 37° C.): 125 µg/mL; Minimum Inhibitory Concentration (M.I.C.) [7]: > 125 µg/mL; Minimum Inhibitory Concentration (M.I.C.) [8]: > 125 µg/mL; Minimum Inhibitory Concentration (M.I.C.) [10]: 125 µg/mL; Minimum Inhibitory Concentration (M.I.C.) [11, 21]: 8 µg/mL; Minimum Inhibitory Concentration (M.I.C.) [14]: > 125 µg/mL; Minimum Inhibitory Concentration (M.I.C.) [17]: > 125 µg/mL; Minimum Inhibitory Concentration (M.I.C.) [18]: > 125 µg/mL
CC1=C(C(=O)O)N2C(=O)C(C(O)c3ccccc3)C2S1 (stereo not drawn) [Example 4]											125 (≈ 429 µM)	> 63	> 125	125 (≈ 429 µM)	> 125	63 (≈ 216 µM)	> 125	> 125	> 125		MIC [4, 22]: 125 µg/mL (≈ 429 µM); MIC [5, 23]: > 125 µg/mL; MIC [6, 24]: 4 µg/mL (≈ 13.7 µM); MIC ([9]; Streptococcus pneumoniae, A9585, Str. pneumoniae A9585, read-out: Minimum Inhibitory Concentration (M.I.C.)): 1 µg/mL (≈ 3.43 µM); MIC [11, 25]: 125 µg/mL (≈ 429 µM); MIC [12, 26]: > 125 µg/mL; MIC ([20]; A9716, Proteus vulgaris / Proteus mirabilis A9716, read-out: Minimum Inhibitory Concentration (M.I.C.)): 63 µg/mL (≈ 216 µM); MIC [16]: 4 µg/mL (≈ 13.7 µM); MIC [19]: 8 µg/mL (≈ 27.5 µM)
CC1=C(C(=O)O)N2C(=O)C[C@H]2S1 [Preparation 4(+), (+)-2-Methylpenem-3-carboxylic Acid]		4	4	0.5	0.06	8	4	> 125	0.25	0.5											Minimum Inhibitory Concentration (M.I.C.) [7]: 4 µg/mL; Minimum Inhibitory Concentration (M.I.C.) [8]: 8 µg/mL; Minimum Inhibitory Concentration (M.I.C.) [10]: 4 µg/mL; Minimum Inhibitory Concentration (M.I.C.) [14]: 8 µg/mL; Minimum Inhibitory Concentration (M.I.C.) [20]: 4 µg/mL; Minimum Inhibitory Concentration (M.I.C.) [18]: 8 µg/mL
CC1=C(C(=O)O)N2C(=O)C[C@H]2S1 [Preparation 4(-), (-)-2-Methylpenem-3-carboxylic Acid]		> 63			8			> 125	8	32										> 125	MIC [4, 27]: > 125 µg/mL; MIC ([12]; Enterobacter cloacae A9656): > 125 µg/mL
CSCC1=C(C(=O)O)N2C(=O)C[C@H]2S1 [Preparation 9, 2-Methylthiomethylpenem-3-carboxylic Acid]	32			4		8					63 (≈ 272 µM)	63	4 (≈ 17.3 µM)	4 (≈ 17.3 µM)	1 (≈ 4.32 µM)	1 (≈ 4.32 µM)	16 (≈ 69.2 µM)	> 125	4 (≈ 17.3 µM)	> 125	MIC [3]: > 125 µg/mL; MIC [4, 22]: 2 µg/mL (≈ 8.65 µM); MIC [5, 23]: 63 µg/mL (≈ 272 µM); MIC [6, 24]: 8 µg/mL (≈ 34.6 µM); Minimum Inhibitory Concentration (M.I.C.) [11, 21]: 8 µg/mL; MIC [11, 25]: 16 µg/mL (≈ 69.2 µM); MIC [12, 26]: 16 µg/mL (≈ 69.2 µM); MIC [16]: 0.25 µg/mL (≈ 1.08 µM); MIC [17]: > 125 µg/mL; MIC [19]: 0.5 µg/mL (≈ 2.16 µM)
CCCCCC1=C(C(=O)[O-])N2C(=O)C[C@H]2S1.[K+] [Preparation 16, Potassium 2-Pentylpenem-3-carboxylate]							8				32	> 63	125	16	63	4	> 125	> 125	> 125	> 125	MIC [3]: > 125 µg/mL; MIC [4, 27]: 16 µg/mL; MIC ([6]; read-out: Minimum Inhibitory Concentration (M.I.C.), Staph. aureus A9606 (Pen-Res)): 4 µg/mL; MIC ([11]; read-out: Minimum Inhibitory Concentration (M.I.C.), Staph. aureus A15097 (Meth-Res)): 125 µg/mL; MIC ([12]; Enterobacter cloacae A9656): 125 µg/mL; Minimum Inhibitory Concentration (M.I.C.) [20]: 8 µg/mL; MIC ([20]; A9716, read-out: Minimum Inhibitory Concentration (M.I.C.), Proteus vulgaris / Proteus mirabilis A9716): 4 µg/mL; MIC [17]: > 125 µg/mL
